One block for each compound: values may come before it.
What was measured:
[1] = In-vivo biodistribution experiment on normal mice; set-up: species or system mice (ICR, male); details: for Bones radioactivity: tail vein injection
Protocol: The in-vivo pharmacokinetic properties of mice have been studied with the in-vivo biodistribution experiment, especially the absorption by the primitive brain and the removal from the brain.
Inject 5-10 μCi of a labeled compound (100 μL of a physiological saline solution containing 5% of ethanol) into normal mice (ICR, male, 20-22 g) (n=5) by tail vein injection. The mice are decapitated respectively 2 minutes, 10 minutes, 30 minutes and 60 minutes after the injection. Dissect the mice and take out the relevant organs. Measure the moisture content and the radioactivity amount. The measurement values represent the percentage of the radioactivity amount in an organ (% ID/organ) and the percentage of the radioactivity amount in the organ of one gram (% ID/g).

protein polymer Aβ1-42 = molecular target: T1, protein polymer Aβ1-42 (Homo sapiens, UniProt P05067); assay: Competitive binding experiment (Ki assay) against [125I]IMPY; details: read-out: Ki (inhibition constant)
T1 construct: A receptor Aβ1-42 protein is prepared by an established method
T1 sequence (P05067 672-713 limits assumed): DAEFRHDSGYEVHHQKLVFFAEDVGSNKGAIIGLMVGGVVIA
Protocol: Competitive binding experiment (Ki assay): Put a protein polymer Aβ1-42 of a certain concentration and a radioactive ligand [^125I] […] (5) A glass fiber filter is soaked in a PBS solution containing 0.1% (volume fraction) of polyethyleneimine for 0.5 h. (6) Add 100 μL of a solution of a compound to be tested and of different concentrations, 100 μL of the [^125I] […] Seal the tub with parafilm and swirl it. (7) Shake the tube in a water bath constantly at 37° C. and maintain the incubation for 2 h. (8) Collect the reaction solution with a multi-phase cell collector. Rinse the collected solution with the PBS for three times, 3 mL for each rinse. (9) Count with a γ counter. (10) Process the data.

SMILES: CN(C)c1ccc(-c2nc3cc(OC[C@H](O)C[18F])ccc3o2)cc1 [Compound [^18F]29s]
removal from the brain [1]: quickly removed from the brain of normal mice
ratio of the absorption in 2 minutes to that in 60 minutes (brain) ([1]; brain): 27.8
Bones radioactivity ([1]; 2 min.): 2.06 ± 0.45 % ID/g
Bones radioactivity ([1]; 10 min): 0.99 ± 0.35 % ID/g
Bones radioactivity ([1]; 30 min): 0.85 ± 0.30 % ID/g
Bones radioactivity ([1]; 1 h): 1.13 ± 0.28 % ID/g

SMILES: CNc1ccc(-c2nc3ccc(OC[C@H](O)CF)cc3o2)cc1 [Compound 18s]
Ki (protein polymer Aβ1-42): 103 ± 18.6 nM

SMILES: CNc1ccc(-c2nc3ccc(OC[C@@H](O)CF)cc3s2)cc1 [Compound 14r]
Ki (protein polymer Aβ1-42): 27.2 ± 2.9 nM

SMILES: CN(C)c1ccc(-c2nc3ccc(OC[C@@H](O)C[18F])cc3s2)cc1 [Compound [^18F]15r]
Bones radioactivity ([1]; 2 min.): 2.43 ± 0.53 % ID/g
Bones radioactivity ([1]; 10 min): 2.31 ± 0.26 % ID/g
Bones radioactivity ([1]; 30 min): 1.42 ± 0.27 % ID/g
Bones radioactivity ([1]; 1 h): 1.12 ± 0.59 % ID/g

SMILES: CN(C)c1ccc(-c2nc3cc(OC[C@@H](O)C[18F])ccc3o2)cc1 [Compound [^18F]29r]
Bones radioactivity ([1]; 2 min.): 2.12 ± 0.60 % ID/g
Bones radioactivity ([1]; 10 min): 1.24 ± 0.40 % ID/g
Bones radioactivity ([1]; 30 min): 1.36 ± 0.41 % ID/g
Bones radioactivity ([1]; 1 h): 1.93 ± 0.77 % ID/g

SMILES: CNc1ccc(-c2nc3ccc(OC[C@@H](O)CF)cc3s2)cn1 [Compound 16r]
Ki (protein polymer Aβ1-42): 9.9 ± 2.8 nM

SMILES: CN(C)c1ccc(-c2nc3ccc(OC[C@@H](O)CF)cc3s2)cn1 [Compound 17r]
Ki (protein polymer Aβ1-42): 11.1 ± 5.4 nM

SMILES: CNc1ccc(-c2nc3cc(OC[C@@H](O)C[18F])ccc3o2)cc1 [Compound [^18F]28r]
Bones radioactivity ([1]; 2 min.): 1.41 ± 0.29 % ID/g
Bones radioactivity ([1]; 10 min): 1.79 ± 0.21 % ID/g
Bones radioactivity ([1]; 30 min): 1.19 ± 0.15 % ID/g
Bones radioactivity ([1]; 1 h): 3.05 ± 0.86 % ID/g

SMILES: CN(C)c1ccc(-c2nc3ccc(OC[C@H](O)C[18F])cc3s2)cc1 [Compound [^18F]15s]
Bones radioactivity ([1]; 2 min.): 2.31 ± 0.71 % ID/g
Bones radioactivity ([1]; 10 min): 1.82 ± 0.39 % ID/g
Bones radioactivity ([1]; 30 min): 1.45 ± 0.48 % ID/g
Bones radioactivity ([1]; 1 h): 1.08 ± 0.38 % ID/g

SMILES: CN(C)c1ccc(-c2nc3ccc(OC[C@H](O)CF)cc3s2)cc1 [Compound 15s]
Ki (protein polymer Aβ1-42): 3.7 ± 1.1 nM

SMILES: CNc1ccc(-c2nc3ccc(OC[C@H](O)CF)cc3s2)cc1 [Compound 14s]
Ki (protein polymer Aβ1-42): 26 ± 6.5 nM

SMILES: CN(C)c1ccc(-c2nc3ccc(OC[C@H](O)CF)cc3s2)cn1 [Compound 17s]
Ki (protein polymer Aβ1-42): 27.2 ± 7.1 nM

SMILES: CNc1ccc(-c2nc3cc(OC[C@H](O)C[18F])ccc3o2)cc1 [Compound [^18F]28s]
Bones radioactivity ([1]; 2 min.): 1.63 ± 0.44 % ID/g
Bones radioactivity ([1]; 10 min): 0.77 ± 0.11 % ID/g
Bones radioactivity ([1]; 30 min): 0.52 ± 0.16 % ID/g
Bones radioactivity ([1]; 1 h): 0.74 ± 0.13 % ID/g

SMILES: CNc1ccc(-c2nc3ccc(OC[C@H](O)CF)cc3s2)cn1 [Compound 16s]
Ki (protein polymer Aβ1-42): 45.4 ± 11.8 nM

SMILES: CN(C)c1ccc(-c2nc3ccc(OC[C@@H](O)CF)cc3s2)cc1 [Compound 15r]
Ki (protein polymer Aβ1-42): 3.2 ± 1.1 nM

SMILES: CNc1ccc(-c2nc3ccc(OC[C@@H](O)CF)cc3o2)cc1 [Compound 18r]
Ki (protein polymer Aβ1-42): 129 ± 40.2 nM

Next, values leading:

Ki (protein polymer Aβ1-42): 57.4 ± 7.6 nM
SMILES: CN(C)c1ccc(-c2nc3cc(OC[C@H](O)CF)ccc3o2)cn1 [Compound 31s]

Ki (protein polymer Aβ1-42): 187 ± 39 nM
SMILES: CNc1ccc(-c2nc3cc(OC[C@@H](O)CF)ccc3o2)cn1 [Compound 30r]

Ki (protein polymer Aβ1-42): 67.3 ± 5.5 nM
SMILES: CNc1ccc(-c2nc3cc(OC[C@H](O)CF)ccc3o2)cc1 [Compound 28s]

Ki (protein polymer Aβ1-42): 85.3 ± 5.2 nM
SMILES: CNc1ccc(-c2nc3cc(OC[C@@H](O)CF)ccc3o2)cc1 [Compound 28r]

Ki (protein polymer Aβ1-42): 27.2 ± 6.3 nM
SMILES: CN(C)c1ccc(-c2nc3cc(OC[C@@H](O)CF)ccc3o2)cn1 [Compound 31r]

Ki (protein polymer Aβ1-42): 7.6 ± 2.8 nM
SMILES: CN(C)c1ccc(-c2nc3cc(OC[C@@H](O)CF)ccc3o2)cc1 [Compound 29r]

Ki (protein polymer Aβ1-42): 11 ± 1.5 nM
SMILES: CN(C)c1ccc(-c2nc3ccc(OC[C@H](O)CF)cc3o2)cc1 [Compound 19s]

Ki (protein polymer Aβ1-42): 15.5 ± 3.2 nM
SMILES: CN(C)c1ccc(-c2nc3cc(OC[C@H](O)CF)ccc3o2)cc1 [Compound 29s]

Ki (protein polymer Aβ1-42): 196 ± 49.1 nM
SMILES: CNc1ccc(-c2nc3cc(OC[C@H](O)CF)ccc3o2)cn1 [Compound 30s]

Ki (protein polymer Aβ1-42): 10.8 ± 2.6 nM
SMILES: CN(C)c1ccc(-c2nc3ccc(OC[C@@H](O)CF)cc3o2)cc1 [Compound 19r]

— patent US9809585B2, “Fluorinated 2-arylbenzo heterocyclic compound with high affinity to Aβ 946; plaques and containing chiral side chain substituent, and preparation method and usage thereof” (BEIJING ZHIBO BIO-MEDICAL TECHNOLOGY CO.,LTD, priority 2014, dated 2017)
